Source: patent US6495524B1, “Benzo[b]pyran derivatives useful as external agents for the skin” (Pola Chemical Industries Inc., priority 1998, dated 2002)

What was measured:
[1] = test system: mouse melanoma-derived cells B-16; assay: Inhibitory activity against melanine synthesis; assay type: cell-based; conditions: for Inhibition Ratio (melanine synthesis) / Amount of Melanine: 4 days; for Amount of Melanine: mean ± SD of five flasks; for inhibitory activity against the melanine synthesis by melanocytes (in words): remarkable in concentrations of 0.0005 w/v% or more
Experimental: 3×10^4 cells of mouse melanoma-derived cells B-16 were inoculated in a plastic incubation flask (75 cm^3) and incubated in Eagle MEM medium containing 10% fetal bovine serum under the conditions of 5% CO2 and 37° C. Two days after the start of the incubation, the inulavosin obtained in Production Example 1 above, the acetylinulavosin obtained in Example 1, or the glucosylinulavosin obtained in Example 2 was added to the incubation flask so that its concentration in the medium became 5×10^−5 to 1×10^−3 (W/V%) as shown in Tables 1 to 3 below, and the incubation was continued for additional 4 days. After completion of the incubation, the medium was removed from the incubation flask and the flask was washed with equilibrium phosphate buffer solution (hereinafter referred as “PBS”). Thereafter, the cells adhered on the incubation flask were stripped off with a solution containing trypsin and EDTA and then the obtained mixture was centrifuged to collect the cells.
After washing the collected cells with PBS, 1N sodium hydroxide was added to the precipitate, and the mixture was heat-dissolved. After cooling, chloroform was added thereto and the mixture was stirred and centrifuged again. The resultant supernatant was measured for absorbance at 400 nm and the amount of melanine was obtained by a calibration curve prepared in advance using synthetic melanine. The amount of melanine was obtained as weight (μg) per 10^6 cells. In the experiments, five flasks were used for each concentration of the test samples.
Tables 1 to 3 show the results obtained as average values of five flasks together with standard deviations. Tables 1 to 3 show the results for inulavosin, acetylinulavosin, and glucosylinulavosin, respectively.
In addition, as a control, the amount of melanine was determined by conducting the same experiments as described above except that the compound represented by formula (I) was not added. From the amount of melanine in the absence of samples and the amount of melanine in the presence of a sample, there was obtained melanine synthesis inhibition ratio (R(%)) by the following equation. The amount of melanine in the equation was an average value obtained from five flasks.
R: Melanine synthesis inhibition ratio
A: Amount of melanine in the absence of samples
B: Amount of melanine in the presence of a sample

[2] = test system: fish; conditions: Heterocycles, Vol. 41, No. 9, 1923-1926 (1995); cited from earlier work
[3] = test system: Staphylococcus aureus; conditions: Heterocycles, Vol. 41, No. 9, 1923-1926 (1995); cited from earlier work
[4] = test system: Pseudomonas aeruginosa; conditions: Heterocycles, Vol. 41, No. 9, 1923-1926 (1995); cited from earlier work

SMILES | Inhibition Ratio (melanine synthesis) ([1]; 1 × 10^−3 W/V % in medium) | Amount of Melanine ([1]; 1 × 10^−3 W/V % in medium) | Inhibition Ratio (melanine synthesis) ([1]; 1 × 10^−4 W/V % in medium) | Amount of Melanine ([1]; 1 × 10^−4 W/V % in medium) | Inhibition Ratio (melanine synthesis) ([1]; 5 × 10^−4 W/V % in medium) | Amount of Melanine ([1]; 5 × 10^−4 W/V % in medium) | Inhibition Ratio (melanine synthesis) ([1]; 5 × 10^−5 W/V % in medium) | Amount of Melanine ([1]; 5 × 10^−5 W/V % in medium) | inhibitory activity against the melanine synthesis by melanocytes (in words) [1] | fish toxin activity [2] | antibacterial activity [3] | antibacterial activity [4]
CC(=O)Oc1cc(C)ccc1C1(C)CC(C)(C)c2ccc(C)cc2O1 (stereo not drawn) [Acetylinulavosin, 2′-acetoxy-2,4,4,7,4′-pentamethylflavan] | 87.9% | 0.39 ± 0.18 μg/10^6 cells | 25.1% | 2.42 ± 0.26 μg/10^6 cells | 62.2% | 1.22 ± 0.17 μg/10^6 cells | 9.3% | 2.93 ± 0.35 μg/10^6 cells | have inhibitory activity against the melanine synthesis by melanocytes |  |  | 
Cc1ccc2c(c1)OC(C)(c1ccc(C)cc1OC1O[C@H](CO)[C@@H](O)[C@H](O)[C@H]1O)CC2(C)C (stereo partly drawn) [Glucosylinulavosin, 2′-O-glucosyl-2,4,4,7,4′-pentamethylflavan] | 80.8% | 0.62 ± 0.15 μg/10^6 cells | 22.0% | 2.52 ± 0.23 μg/10^6 cells | 58.2% | 1.35 ± 0.17 μg/10^6 cells | 6.5% | 3.02 ± 0.33 μg/10^6 cells | have inhibitory activity against the melanine synthesis by melanocytes |  |  | 
Cc1ccc(C2(C)CC(C)(C)c3ccc(C)cc3O2)c(O)c1 (stereo not drawn) [Inulavosin, 2′-hydroxy-2,4,4,7,4′-pentamethylflavan] | 91.3% | 0.28 ± 0.17 μg/10^6 cells | 31.0% | 2.23 ± 0.24 μg/10^6 cells | 73.1% | 0.87 ± 0.21 μg/10^6 cells | 15.2% | 2.74 ± 0.32 μg/10^6 cells | have inhibitory activity against the melanine synthesis by melanocytes | fish toxin activity | antibacterial activity | antibacterial activity
